The values below come from patent publication US8858952B2, “Methods and materials for generating T cells” (Mayo Foundation for Medical Education and Research, priority 2009, dated 2014).

The target in one experiment is furin (Homo sapiens, UniProt P09958). The conditions noted are these: cited from earlier work.
For another experiment, the system named is CD4 T cells. The experiment can be described thus: Proliferation assay of CD4 and CD8 T cells from FR74-immunized mice. Type of experiment: cell-based. The settings on record: but not CD8 T cells, from FR74-immunized FVB mice, FIG. 3A. As to the method:
FIG. 3A is a plotting the stimulation indices from a proliferation assay in which CD4 and CD8 T cells from FR74-immunized mice were tested for response to non-specific stimulation (PHA), FR74 polypeptide, or an irrelevant polypeptide (Irrel pep). The stimulation index is the ratio of the thymidine incorporation in the sample with antigen and the controls ample. FIG. 3B is a graph plotting results of an IFN-γELlspot (enzyme-linked immunosorbent spot) analysis of FR74-specific T cell lines stimulated in vitro with dendritic cells (DC) pulsed with either FR74 polypeptide, FRα-overexpressing tumor cell lysate (MMC lysate), or an irrelevant polypeptide antigen (Irrel pep). Each bar is the mean (±s.e.m.) of 3 replicates.
The FR74 polypeptide can activate CD4 T cells in FVB and B6 mice, and it is naturally processed.

The subject of another experiment is FR74-specific T cells. The experiment can be described thus: IFN-γ ELIspot of T cell cultures generated ex vivo with polypeptide-pulsed DC. Type of experiment: cell-based, FVB/N mice. Here is the method:
FIG. 4 is a graph plotting the results an IFN-γ ELIspot analyses of T cell cultures incubated with the indicated polypeptides. Epitope nesting greatly augments the numbers of antigen-specific T cells. T cells were tested in ELIspot against native FR74 polypeptide at various concentrations. Each data point is the mean of 3 determinations.
FIG. 6. FR74-specific T cells generated with modified polypeptides recognized tumor lysates. […] Each bar is the mean (±s.e.m.) of 3 replicates.
FIG. 7. […] The T cells were generated at varying concentrations of polypeptides (x-axis). Each point is the mean (±s.e.m.) of 3 replicates.
In terms of proliferation, only the dual modified polypeptide was able to generate T cells that were able to proliferate at 10^−9 g/mL (FIG. 5).
In order to determine whether furin cleavage is required, two methods are used: furin insensitive linkers and furin inhibitors. Blockade of enhanced ex vivo expansion mediated by the DC3 peptide using these two methods is powerful evidence, outside of a furin knockout mouse, that furin is required for the actions of DC3. Although it has already been shown that DC3 must be linked to antigen, as a control T cells are expanded using free FR74 mixed with free DC3. To test the role of furin with furin-insensitive linkers, RARR (SEQ ID NO:4) is replaced with VRVV (SEQ ID NO:41) with the polypeptides FR74.1, FR74.3, and FR74.8 as shown in FIG. 17. In parallel with these cultures, cultures are included in which inhibitors are included. The stoichiometric peptidyl inhibitor decanoyl-Arg-Val-Lys-Arg-CH2CL (SEQ ID NO:42) and α1-antitrypsin Portland, which are the two most commonly used inhibitors, are employed. […] Cultures are examined over a range of concentrations of inhibitors and assayed as described with ELIspot and proliferation assays. To generate Th cells, CD4^+ T cells are purified by incubation of splenocytes with anti-CD4^+ MACS microbeads (Miltenyi, Auburn, Calif.) for 20 minutes at 4° C., followed by positive selection of CD4^+ T cells using an AutoMACS automatic magnetic cell sorter according to the manufacturer's specifications. Th cell lines are established with bone marrow derived DC at a concentration of 5×10^4 T cells/mL in 24-well tissue culture-treated plates in complete medium on day 0. To derive the dendritic cells (DCs), bone marrow is harvested from the long bones of FVB/N mice and seeded in 6-well plates (3×10^6/well) in complete media with murine GM-CSF (10 ng/mL) and IL-4 (1 ng/mL). Media and cytokines are replaced after 3 days. On day 5, CPG is added to the cultures at 1 μg/mL, and the cells are ready for T cell induction on day 6. The tissue culture-generated DC are pulsed with 10 μg/mL FR74 peptide or its modifications and 10 μg/mL B7DC-crosslinking antibody at 37° C. for 4 hours. In these experiments, constant mass is maintained. Next, the peptide-loaded DC are washed with media, and the CD4+ T cells are added, and on days 8 and 10, IL-2 (50 U/mL) is added. On day 15, cells are assayed. For the ELIspot analysis, anti-IFN-γ (Pharmingen) antibody is added to a 96-well nitrocellulose-backed plate (NC-plate, Millipore) at 50 μL/well at a concentration of 10 μg/mL in PBS and incubated overnight at 4° C. The day of analysis, the NC-plate is washed with PBS and blocked for 1-2 hours at 37° C. with PBS/2%BSA. After blocking, the plate are again washed. The Th cells are transferred to the antibody-coated plates. Syngeneic naïve CD4 T cells alone without peptide antigen are used as the negative control. Th cells are seeded at 5×10^4 cells/well with a range of native (i.e., FR74) peptide, irrelevant peptide, FRαMMC tumor lysate, irrelevant tumor lysate, media or concanavalin A. Irradiated syngeneic splenocytes are added at 1 ×10^5 cells/well as antigen-presenting cells. The plate is incubated at 37° C. for 24 hours. The plate are washed with PBS/0.05% Tween-20, and 100 μL/well biotinylated anti-IFN-γ(5 μg/mL, Pharmingen) antibody are added to each well. […]

Experiment [1] is described as follows: Immunogenicity of FR74 used as a vaccine with adjuvant. Type of experiment: in vivo. The conditions noted are these: with complete Freund's adjuvant (CFA), CpG, or GM-CSF. An excerpt:
A native helper epitope designated FR74 was a peptide derived from the folate receptor alpha (FRα) (FIG. 2). FRα (also referred to as folate binding protein) is a glycophosphatidyl-anchored membrane glycoprotein that mediates cellular uptake of folate. This polypeptide is over-expressed on many cancers at levels of up to 80-90-fold relative to the levels observed on normal tissues. FRα is an antigen that can be used across strains, which allows one to test various strategies amongst many different I-A and I-E backgrounds. […] FR74 was modified at the amino-terminus end with an Ii-key and at the carboxy terminus with a DC3 amino acid motif (FIG. 2). To reduce enzymatic degradation in cell culture, the amino terminus of FR74 was acetylated to make FR74.1. FR74.2 is FR74 conjugated to Ii-key. It is attached with a flexible, noncleavable linker FR74.3 is FR74 conjugated to a DC3 polypeptide using a furin sensitive linker to permit cleavage. Furin is an endopeptidase that normally proteolytically activates a large number of proproteins in the cell, and it is predominantly localized to the […] (Thomas, G., Nat. Rev. Mol. Cell Biol., 3(10):753-66 (2002)). FR74.4 is a dual conjugated polypeptide. All modified peptides were acetylated at the amino terminus to prevent degradation.

For a further experiment, the system named is Th cells. The experiment can be described thus: Cytokine secretion and Th subsets of T cell cultures under varied culture conditions. Type of experiment: cell-based. As to the method:
FIG. 19. […] Cytokines were measured following stimulation of cells with splenocytes pulsed with either no antigen (open bars) or native FR74 polypeptide. To avoid contamination of cell culture supernatants with splenocyte-derived cytokines, the T cells were purified from the splenocytes prior to incubation to measure cytokines Each bar is the mean (±s.e.m.) of duplicate samples. Results are representative of 2 experiments.
FIG. 20. Manipulation of culture conditions can reduce levels of IL-5 and IL-10 secreting Th cells. Shown are the concentrations of IL-5 and IL-10 within T-cell culture media following simulation of Th cells with or without peptide antigen. Each bar is the mean (±s.e.m.) of duplicate samples.
FIG. 25. Manipulation of culture conditions can reduce levels of IL-5 secreting T cells. Shown are the concentrations of IL-5 within T cell culture media following stimulation of Th cells with or without polypeptide antigen. Each bar is the mean (±s.e.m.) of duplicate samples.
FIG. 26. […] Shown are the concentrations of IL-17 within T cell culture media following simulations of Th cells with or without polypeptide antigen. Each bar is the mean (±s.e.m.) of duplicate samples.
Another item is that Th subset skewing may occur which could cloud interpretations of the polypeptide modifications. […]

Sequence of furin (P09958 108-794, species assumed): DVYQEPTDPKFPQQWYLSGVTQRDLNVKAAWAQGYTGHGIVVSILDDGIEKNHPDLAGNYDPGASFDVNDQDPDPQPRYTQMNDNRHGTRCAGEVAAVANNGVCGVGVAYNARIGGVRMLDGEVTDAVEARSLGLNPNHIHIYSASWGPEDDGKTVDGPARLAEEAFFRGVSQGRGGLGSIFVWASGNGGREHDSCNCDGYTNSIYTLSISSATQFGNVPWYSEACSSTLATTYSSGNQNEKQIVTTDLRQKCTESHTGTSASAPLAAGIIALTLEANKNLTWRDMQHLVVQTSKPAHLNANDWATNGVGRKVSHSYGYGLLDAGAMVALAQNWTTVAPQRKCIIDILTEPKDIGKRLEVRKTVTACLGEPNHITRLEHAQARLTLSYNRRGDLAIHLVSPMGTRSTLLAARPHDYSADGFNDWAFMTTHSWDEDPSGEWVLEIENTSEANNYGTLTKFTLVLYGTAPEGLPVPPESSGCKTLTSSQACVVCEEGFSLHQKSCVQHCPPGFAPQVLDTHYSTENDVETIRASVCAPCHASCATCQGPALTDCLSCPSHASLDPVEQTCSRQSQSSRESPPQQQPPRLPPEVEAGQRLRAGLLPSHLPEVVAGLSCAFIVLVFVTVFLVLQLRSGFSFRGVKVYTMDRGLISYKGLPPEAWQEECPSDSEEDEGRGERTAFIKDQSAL

For α1-antitrypsin, the selectivity for furin entry at furin is recorded as “highly selective for furin”. Also, the Ki on furin (furin) was 0.6 nM.

In the case of decanoyl-Arg-Val-Lys-Arg-CH2CL, the selectivity for furin entry at furin is reported as “not selective”.

For KDISYLYRFNWNHCG [FR74], in the experiment on CD4 T cells, the “proliferation in response to the FR74 polypeptide (stimulation index)” value is on record as “increased proliferation”. The “recognition of FRα+ tumor lysates (MMC) pulsed onto DC by FR74-specific T cell lines” value with FR74-specific T cells (IFN-γ ELIspot, FIG. 3B) is listed as “recognize FRα^+ tumor lysates”. Further, in the experiment on FR74-specific T cells (using activated DC), the “immunogenicity when used to generate T cell lines” value was “relatively non-immunogenic”. The “immunogenicity as a vaccine” value in experiment [1] is reported as “highly immunogenic”.

B1: IFN-γ: cytokine included in T cell culture (protein, UniProt P01579 24-161, looked up)
Interferon gamma: QDPYVKEAENLKKYFNAGHSDVADNGTLFLGILKNWKEESDRKIMQSQIVSFYFKLFKNFKDDQSIQKSVETIKEDMNVKFFNSNKKKRDDFEKLTNYSVTDLNVQRKAIHELIQVMAELSPAAKTGKRKRSQMLFRG
Consider B1, for which, in the experiment on Th cells (FIG. 26), the “generation of IL-17-secreting Th cells” value was “blocks generation of IL-17-secreting Th cells”. The “Th2 effectors (IL-5) in FR74.4 cultures” value in the experiment on Th cells (cells incubated with FR74.4 with DC and IL-2, FIG. 25) is “completely blocked”.

What is called Ki is the equilibrium dissociation constant of an inhibitor or competing ligand from its target.
